Assay results from PubChem BioAssay AID1117324 (Cheminformatics & Chemogenomics Research Group (CCRG), …, 2015).
Calls of active or inactive are those of the source. No rule for the calls is given here.

Test system: VEGF-stimulated ADSC/ECFC co-culture, nuclear area imaging
Experiment: nuclear area loss in endothelial-stromal co-culture, dose response, cell-based, VEGF stimulation, IC50 (AID 1117324)

Compound	IC50
O=C(Nc1ccc(Cl)cc1)Nc1ccc(Cl)c(Cl)c1	> 10 µM (inactive)
Cc1cccc(C)c1NC(=O)CC12CCCN1CCC2	> 10 µM (inactive)
C[C@@]12C(=O)OC(=O)[C@]1(C)C1CCC2O1	8.33 µM (inactive)
Clc1ccc(Nc2nnc(Cc3ccncc3)c3ccccc23)cc1	> 10 µM (inactive)
CC(C)OC(=O)OCOP(=O)(CO[C@H](C)Cn1cnc2c(N)ncnc21)OCOC(=O)OC(C)C	> 10 µM (inactive)
CC(C)(C)CC(C)(C)c1ccc(O)cc1	9.11 µM (inactive)
Nc1ncn([C@@H]2O[C@H](CO)[C@@H](O)[C@H]2O)c(=O)n1	> 10 µM (inactive)
O=[N+]([O-])c1cccc(S(=O)(=O)NCCNS(=O)(=O)c2cccc([N+](=O)[O-])c2)c1	> 10 µM (inactive)
CC(C)(CO)[C@@H](O)C(=O)NCCC(=O)NCCSSCCNC(=O)CCNC(=O)[C@H](O)C(C)(C)CO	> 10 µM (inactive)
O=C(O)CCCc1ccc(N(CCCl)CCCl)cc1	> 10 µM (inactive)
COc1cccc2c1C(=O)c1c(O)c3c(c(O)c1C2=O)C[C@@](O)(C(=O)CO)C[C@@H]3O[C@H]1C[C@H](N)[C@H](O)[C@H](C)O1	0.114 µM
Cc1c(C)c2c(c(C)c1O)CCC(C)(COc1ccc(CC3SC(=O)NC3=O)cc1)O2 (stereo not given)	> 10 µM (inactive)
CCC(C)n1ncn(-c2ccc(N3CCN(c4ccc(OC[C@H]5CO[C@](Cn6cncn6)(c6ccc(Cl)cc6Cl)O5)cc4)CC3)cc2)c1=O (stereo not given in full)	> 10 µM (inactive)
CC(C)Cn1cnc2c1c(=O)n(C)c(=O)n2C	> 10 µM (inactive)
COC(=O)C1=C(C)NC(C)=C(C(=O)OC(C)(C)CN(C)CCC(c2ccccc2)c2ccccc2)C1c1cccc([N+](=O)[O-])c1 (stereo not given)	> 10 µM (inactive)
O=C(NC1CCN(CCc2c[nH]c3ccccc23)CC1)c1ccccc1	> 10 µM (inactive)
N/C(=N\N=C\c1ccc(Cl)cc1)N/N=C/c1ccc(Cl)cc1	> 10 µM (inactive)
C=CCN1CC[C@]23CCCC[C@H]2[C@H]1Cc1ccc(O)cc13	> 10 µM (inactive)
Cc1cc(O)c2ccccc2c1O	9.85 µM (inactive)
CCCCCCCCCCOCC(O)CN (stereo not given)	> 10 µM (inactive)
CC1=C(C(=O)OC(C)C)C(c2cccc([N+](=O)[O-])c2)C(C(=O)OC2CN(C(c3ccccc3)c3ccccc3)C2)=C(N)N1 (stereo not given)	7.39 µM (inactive)
CCOC(=O)c1ccccc1C(=O)OCC	> 10 µM (inactive)

Compound	IC50
O=NN(CCCl)C(=O)NC1CCCCC1	> 10 µM (inactive)
CC(C)(C)C1CCC(CC2=C(O)c3ccccc3C(=O)C2=O)CC1 (stereo not given)	> 10 µM (inactive)
CC1CCC(C(C)C)C(OC(=O)c2ccccc2O)C1 (stereo not given)	> 10 µM (inactive)
Cc1onc(-c2c(Cl)cccc2Cl)c1C(=O)Cl	> 10 µM (inactive)
Oc1ccc2[nH]cc(CCCCN3CC=C(c4ccccc4)CC3)c2c1	> 10 µM (inactive)
Nc1nc(=S)c2[nH]cnc2[nH]1	> 10 µM (inactive)
Clc1ccccc1C(c1ccccc1)(c1ccccc1)n1ccnc1	> 10 µM (inactive)
O=[N+]([O-])c1cc(I)c(O)c(I)c1	> 10 µM (inactive)
CCOP(=S)(OCC)SCSc1ccc(Cl)cc1	> 10 µM (inactive)
Oc1cc(Cl)ccc1Oc1ccc(Cl)cc1Cl	8.1 µM (inactive)
CN1CCCC(CC2c3ccccc3Sc3ccccc32)C1 (stereo not given)	> 10 µM (inactive)
CCCCC[C@@H](O)CC[C@H]1[C@@H]2Cc3cccc(OCC(=O)O)c3C[C@@H]2C[C@@H]1O	> 10 µM (inactive)
Cc1[nH]cnc1C[C@H]1CCc2c(C)c3ccccc3n2C1=O	> 10 µM (inactive)
Cc1c(C)c2c(c(C)c1OC(=O)CCC(=O)O)CC[C@@](C)(CCC[C@H](C)CCC[C@H](C)CCCC(C)C)O2	> 10 µM (inactive)
CN(C)CCOC1=Cc2ccccc2Sc2ccc(Cl)cc21	> 10 µM (inactive)
CC[C@]1(O)C[C@H]2CN(CCc3c([nH]c4ccccc34)[C@@](C(=O)OC)(c3cc4c(cc3OC)N(C=O)[C@H]3[C@@](O)(C(=O)OC)[C@H](OC(C)=O)[C@]5(CC)C=CCN6CC[C@]43[C@@H]65)C2)C1	> 10 µM (inactive)
O=C1c2c(O)cccc2Cc2cccc(O)c21	> 10 µM (inactive)
CC(C)C[C@H](NC(=O)[C@H](CCc1ccccc1)NC(=O)CN1CCOCC1)C(=O)N[C@@H](Cc1ccccc1)C(=O)N[C@@H](CC(C)C)C(=O)[C@@]1(C)CO1	0.285 µM
CC(=O)N(O)CCCCCNC(=O)CCC(=O)N(O)CCCCCNC(=O)CCC(=O)N(O)CCCCCN	> 10 µM (inactive)
CCCCc1oc2ccc(NS(C)(=O)=O)cc2c1C(=O)c1ccc(OCCCN(CCCC)CCCC)cc1	7.56 µM (inactive)
Nc1cc(C(F)(F)F)ccc1S	> 10 µM (inactive)
CC(=O)O[C@H]1C[C@H](O[C@H]2[C@@H](O)C[C@H](O[C@@H]3[C@@H](O)C[C@H](O[C@H]4CC[C@@]5(C)[C@H](CC[C@@H]6[C@H]5C[C@@H](O)[C@]5(C)[C@@H](C7=CC(=O)OC7)CC[C@]65O)C4)O[C@@H]3C)O[C@@H]2C)O[C@H](C)[C@H]1O[C@@H]1O[C@H](CO)[C@@H](O)[C@H](O)[C@@H]1O	0.279 µM

Compound	IC50
O=C(O)c1ccc2[nH]cc(CCCCN3CC=C(c4ccccc4)CC3)c2c1	> 10 µM (inactive)
COc1cc(-c2ccc(=O)[nH]n2)ccc1OC(F)F	> 10 µM (inactive)
NC1=NCC2c3ccccc3Cc3ccccc3N12 (stereo not given)	> 10 µM (inactive)
Clc1ccc(CSC(Cn2ccnc2)c2ccc(Cl)cc2Cl)cc1 (stereo not given)	8.76 µM (inactive)
CCCCCCOC(=O)c1cccnc1	> 10 µM (inactive)
Oc1c(I)cc(Cl)c2cccnc12	> 10 µM (inactive)
CCCCCCCCCCCCCCCC[N+](C)(C)Cc1ccccc1	> 10 µM (inactive)
Cc1nc2ccccc2n1Cc1ccc(Cl)cc1	> 10 µM (inactive)
CCC(C(=O)OCCOCCN(CC)CC)c1ccccc1 (stereo not given)	> 10 µM (inactive)
Clc1ccc(C(Cn2ccnc2)OCc2ccsc2Cl)c(Cl)c1 (stereo not given)	9.47 µM (inactive)
CCC=CCC=CCC=CCCCCCCCC(=O)O	> 10 µM (inactive)
CN[C@@H]1C[C@@H](c2ccc(Cl)c(Cl)c2)c2ccccc21	> 10 µM (inactive)
COc1cccc2c1C(=O)c1c(O)c3c(c(O)c1C2=O)C[C@@](O)(C(=O)CO)C[C@@H]3O[C@H]1C[C@H](N)[C@H](O[C@@H]2CCCCO2)[C@H](C)O1	0.995 µM
CCN(CC)CCOc1ccc(/C(=C(\Cl)c2ccccc2)c2ccccc2)cc1	> 10 µM (inactive)
Cc1nc2ccc(CN(C)c3ccc(C(=O)N[C@@H](CCC(=O)O)C(=O)O)s3)cc2c(=O)[nH]1	> 10 µM (inactive)
CC(C)(C)C(=O)OCOP(=O)(COCCn1cnc2c(N)ncnc21)OCOC(=O)C(C)(C)C	> 10 µM (inactive)
Cc1cc2nc3ccc(=[N+](C)C)cc-3sc2cc1N	8.15 µM (inactive)
COC(=O)C1=C(C)NC(C)=C(C(=O)OCCN2CCN(C(c3ccccc3)c3ccccc3)CC2)C1c1cccc([N+](=O)[O-])c1 (stereo not given)	> 10 µM (inactive)
CC(=O)NC(=O)c1ccccc1O	> 10 µM (inactive)
Cc1ccc(Nc2nccc(N(C)c3ccc4c(C)n(C)nc4c3)n2)cc1S(N)(=O)=O	> 10 µM (inactive)
CC(C)=CCCC(C)=CCCC(C)=CCCC=C(C)CCC=C(C)CCC=C(C)C	> 10 µM (inactive)
